The test can be described thus: Cytotoxicity against human paclitaxel-resistant OVCA429 cells assessed as cell viability preincubated for 20 mins followed by wash and incubation in drug-free media for 72 hrs by MTT assay. The format is functional, cell-based.

The text below walks through data of ChEMBL document CHEMBL3872270, “Intelligent substance delivery into cells using cell-penetrating peptides” (Bioorg Med Chem Lett, 2017).

The term EC50 denotes the concentration giving half of the maximal effect.

On to `CC(=O)O[C@H]1C(=O)[C@@]2(C)[C@H]([C@H](OC(=O)c3ccccc3)[C@]3(O)C[C@H](OC(=O)[C@H](OC(=O)CCCSSCCCCCCOP(=O)(OCCCCCCNC(=N)N)OCCOP(=O)(OCCCCCCNC(=N)N)OCCOP(=O)(OCCCCCCNC(=N)N)OCCOP(=O)(OCCCCCCNC(=N)N)OCCOP(=O)(OCCCCCCNC(=N)N)OCCOP(=O)(OCCCCCCNC(=N)N)OCCOP(=O)(OCCCCCCNC(=N)N)OCCOP(=O)(OCCO)OCCCCCCNC(=N)N)[C@@H](NC(=O)c4ccccc4)c4ccccc4)C(C)=C1C3(C)C)[C@]1(OC(C)=O)CO[C@@H]1C[C@@H]2O` (stereo partly specified), for which the EC50 is 1400 nM.
